How the values were obtained:
Type in all cases: in vivo
Settings in all cases: 50 ppm, 100 = 100% disease control, 0 = no control
[1] = tested on: Blumeria graminis f. sp. tritici; assay: Test C: wheat powdery mildew, preventive spray on wheat seedlings
Procedure, shortened: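 Seedlings were sprayed to run-off with compound suspended (ppm) in 50/50 acetone–water containing 250 ppm PEG400, then spore-dust inoculated the following day. After 8 days at 20° C, disease control was rated visually from 0 to 100 against controls.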

[2] = tested on: Puccinia recondita f. sp. tritici; assay: Test B: wheat leaf rust, preventive spray on wheat seedlings
Procedure, shortened: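 Wheat seedlings were sprayed to run-off with compound suspended at ppm concentrations in acetone/water containing 250 ppm PEG400. The next day they were inoculated with Puccinia recondita f. sp. tritici spores, held saturated at 20 °C for 24 h, then kept 7 days at 20 °C. Disease control was rated 0–100% relative to untreated controls.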

Alternaria solani = assay: Test F: tomato early blight, preventive spray on tomato seedlings
Procedure, shortened: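 Tomato seedlings were sprayed to run-off with compound suspended in acetone/water (50/50) with 250 ppm PEG400 and inoculated with Alternaria solani spores the next day. Plants were held 48 h at 27 °C in saturated humidity, then 3 days at 20 °C. Disease control was rated visually from 0 to 100 against untreated controls.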

Phakopsora pachyrhizi = assay: Test D: Asian soybean rust, preventive spray on soybean seedlings
Procedure, shortened: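 Compounds in acetone/water (50/50) with 250 ppm PEG400, dosed in ppm, sprayed to run-off on soybean seedlings; inoculated with P. pachyrhizi spores next day. Held 24 h at 22 °C in saturated air, then 8 days at 22 °C; visual rating of disease control, 0–100, relative to untreated controls.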

Septoria tritici = assay: Test A: wheat leaf blotch, preventive spray on wheat seedlings
Procedure, shortened: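 Wheat seedlings sprayed to run-off with compound suspended in acetone/water with 250 ppm PEG400 surfactant, inoculated next day with Septoria tritici spores. Held 48 h saturated at 24 °C, then 17 days at 20 °C; disease rated 0–100% control relative to controls.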

Botrytis cinerea = assay: Test E: tomato Botrytis, preventive spray on tomato seedlings
Procedure, shortened: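 Compound suspended in 50/50 acetone/water with 250 ppm PEG400 surfactant and sprayed to run-off on tomato seedlings; Botrytis cinerea spores applied the next day. Incubation 48 h at 20° C in saturated atmosphere, then 3 days at 24° C. Visual rating 0–100% disease control relative to controls.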

Structure (SMILES) | Test C disease control rating [1] | Test B disease control rating [2] | Test F disease control rating (Alternaria solani) | Test D disease control rating (Phakopsora pachyrhizi) | Test A disease control rating (Septoria tritici) | Test E disease control rating (Botrytis cinerea)
Cc1nn(C)c(Nc2c(F)cc(F)cc2[N+](=O)[O-])c1-c1ccc(C#N)cc1Cl [compound 120] | 89% | 100% | 99% | 44% | 100% | 100%
CCc1nn(C)c(Nc2c(F)cccc2[N+](=O)[O-])c1-c1c(F)cc(Cl)cc1F [compound 170] | 99% | 99% | 99% | 0% | 100% | 100%
Cc1cc(Cl)c(Nc2c(-c3ccc(Cl)cc3Cl)c(C)nn2C)c([N+](=O)[O-])c1 [compound 145] | 52% | 92% | 24% | 0% | 98% | 85%
Cc1nn(C)c(Nc2c(Cl)cccc2[N+](=O)[O-])c1-c1ccc(F)cc1Cl [compound 108] | 97% | 100% | 77% | 86% | 100% | 100%
Cc1ccc(Nc2c(-c3c(F)cc(F)cc3Br)c(C)nn2C)c([N+](=O)[O-])c1 [compound 196] | 98% | 99% | 91% | 0% | 100% | 98%
COc1cc(F)c(-c2c(C)nn(C)c2Nc2c(Cl)cccc2[N+](=O)[O-])c(F)c1 [compound 160] | 96% | 100% | 99% | 86% | 98% | 100%
CCc1nn(C)c(Nc2ccc(C)cc2[N+](=O)[O-])c1-c1ccc(F)cc1Cl [compound 174] | 92% | 95% | 39% | 0% | 100% | 99%
COc1ccc(-c2c(C)nn(C)c2Nc2c(Cl)cccc2[N+](=O)[O-])c(C)c1 [compound 35] | 0% | 85% | 0% | 0% | 99% | 0%
COc1ccc(-c2c(C)nn(C)c2Nc2c(F)cc(C)cc2[N+](=O)[O-])c(Cl)c1 [compound 188] | 94% | 100% | 100% | 84% | 100% | 100%
Cc1nn(C)c(Nc2c(Cl)cccc2[N+](=O)[O-])c1-c1ccc(F)cc1F [compound 79] | 91% | 100% | 0% | 44% | 100% | 98%
COc1cc(F)c(-c2c(C)nn(C)c2Nc2c(F)cccc2[N+](=O)[O-])c(F)c1 [compound 70] | 99% | 100% | 99% | 84% | 100% | 99%
CCc1nn(C)c(Nc2ccc(OC)cc2[N+](=O)[O-])c1-c1ccc(F)cc1F [compound 45] | 95% | 86% | 33% | 0% | 100% | 99%
Cc1cccc([N+](=O)[O-])c1Nc1c(-c2ccc(F)cc2Br)c(C)nn1C [compound 42] | 96% | 100% | 0% | 0% | 100% | 91%
Cc1nn(C)c(Nc2cc(F)c(F)cc2[N+](=O)[O-])c1-c1ccc(F)cc1Cl [compound 32] | 56% | 85% | 0% | 98% | 93% | 99%
Cc1nn(C)c(Nc2c(Cl)cc(Br)cc2[N+](=O)[O-])c1-c1ccc(F)cc1Cl [compound 8] | 92% | 99% | 73% | 73% | 99% | 99%
Cc1nn(C)c(Nc2c(Br)cccc2[N+](=O)[O-])c1-c1ccc(F)cc1Cl [compound 110] | 56% | 98% | 0% | 73% | 100% | 99%
Cc1nn(C)c(Nc2c(F)cccc2[N+](=O)[O-])c1-c1ccc([N+](=O)[O-])cc1Cl [compound 192] | 76% | 99% | 93% | 19% | 100% | 99%
Cc1nn(C)c(Nc2c(F)cc(Br)cc2[N+](=O)[O-])c1-c1ccc(F)cc1F [compound 56] | 100% | 100% | 99% | 65% | 100% | 99%
Cc1nn(C)c(Nc2c(F)cccc2[N+](=O)[O-])c1-c1c(F)cc(F)cc1F [compound 62] | 100% | 100% | 99% | 100% | 100% | 99%
CCc1nn(C)c(Nc2c(F)cc(Br)cc2[N+](=O)[O-])c1-c1ccc(F)cc1F [compound 171] | 99% | 91% | 88% | 0% | 100% | 97%
Cc1nn(C)c(Nc2c(F)cc(F)cc2[N+](=O)[O-])c1-c1ccc(F)cc1Cl [compound 109] | 100% | 100% | 99% | 93% | 100% | 100%
Cc1nn(C)c(Nc2ccccc2[N+](=O)[O-])c1-c1c(F)cc(F)cc1Cl [compound 148] | 98% | 99% | 100% | 13% | 100% | 99%
Cc1nn(C)c(Nc2c(F)cccc2[N+](=O)[O-])c1-c1ccc(Cl)cc1F [compound 12] | 81% | 99% | 53% | 0% | 100% | 97%
Cc1nn(C)c(Nc2c(Cl)cccc2[N+](=O)[O-])c1-c1ccc(Cl)cc1Cl [compound 133] | 0% | 86% | 0% | 0% | 100% | 97%
COc1ccc(Nc2c(-c3ccc(C#N)cc3F)c(C)nn2C)c([N+](=O)[O-])c1 [compound 179] | 93% | 96% | 85% | 0% | 100% | 99%
Cc1nn(C)c(Nc2c(Cl)cc(F)cc2[N+](=O)[O-])c1-c1c(F)cccc1F [compound 76] | 95% | 99% | 0% | 25% | 100% | 87%
